# In patent US6878699B1, “Taccalonolide microtubule stabilizing agents” (University of Hawaii, priority 1999, dated 2005):
# Tests used:
# [1] = system: SKVLB-1 cell line (sub-line of SK-OV-3 selected for resistance to vinblastine, P-glycoprotein-overexpressing)
# Experimental: (§1) A-10 rat aortic smooth muscle cells, SK-OV-3 human ovarian carcinoma cell line and HeLa cells were obtained from the American Type Culture Collection (Manassas, Va.) and were cultured in BME containing 10% FBS and 50 μg/1 mL gentamycin sulfate. […] The A-10, HeLa, SK-OV-3, and SKVBL-1 cells were grown in Basal Medium Eagle containing Earle's salts, 50 μg/ml gentamycin, and 10% fetal bovine sorum (Hyclone, Logan Utah). Vinblastine was added to a final concentration of 1 μg/mL to SKVLB-1 cells 24 hours after passage to maintain selection pressure for P-glycoprotein-overexpressing cells.
# (§2) The IC50 for inhibition of cell proliferation was determined by measuring cell-associated protein after drug treatment using the sulforhodamine B assay (see, for example, J. Natl. Cancer Inst. 82:1107-1112 (1990) and Drug Development Res. 34:91-109 (1995)).
# (§3) The IC50 for each cell line was calculated from the dose response curves. The resistance factor was calculated by dividing the IC50 of the drug sensitive cell line by the IC50 of the drug resistant cell line. The values represent the mean of 3 or 4 experiments ± the SD.
# [2] = system: SKVLB-1 cell line (sub-line of SK-OV-3 selected for resistance to vinblastine, P-glycoprotein-overexpressing); settings: SK-OV-3 versus SKVLB-1; Mooberry et al. 1999, Smith et al. 1994; cited from earlier work
# [3] = system: SK-OV-3 human ovarian carcinoma cell line; experiment: Inhibition of cell proliferation, sulforhodamine B (SRB) assay; assay type: cell-based; settings: 48 hr treatment, mean of 3 or 4 experiments ± SD
# Experimental: as §1, §2, §3
# [4] = system: purified glycerol-free bovine brain tubulin; experiment: Assembly of purified tubulin (turbidity); assay type: biochemical; settings: for Potency in tubulin polymerization relative to Taxol/paclitaxel: compared with 2 μM paclitaxel
# Experimental: The assembly of purified tubulin was monitored spectrophotometrically by the change in absorbance at 340 nm. Purified glycerol-free bovine brain tubulin (TL-238, Cytoskeleton, Denver, Colo.) was solubilized in ice cold G-PEM buffer (80 mM PIPES, pH 6.9, 1 mM MgCl2, 1 mM EGTA and 1 mM GTP) and taccalonolide, Taxol or vehicle control was added and mixed well. The final concentration of tubulin was 1 mg/ml and ethanol concentration was 1% or less. An aliquot of the mixture was transferred to a room temperature 96 well plate and tubulin polymerization monitored for 60 min. at 35° C. in a temperature controlled microplate spectrophotometer.
# [5] = system: Bc1-2 and caspase 3; settings: 18 and 24 hrs following treatment
# Experimental: Following drug exposure the cells were harvested and cellular proteins extracted in radioimmunoprecipitation buffer in the presence of protease inhibitors as described previously (see Mooberry et al., Supra). The protein concentrations of the samples were determined (Pierce Reagent, Rockford, Ill.) and cell lysate aliquots containing equal concentrations of protein were separated, transferred, probed with specific antibodies, and detected as previously described (see Mooberry et al., in Cancer Res. 59:653-660 (1999)). The Bc1-2 and caspase 3 antibodies were purchased from PharMingin (San Diego, Calif.).
# [6] = system: MDA-MB-435 human mammary adenocarcinoma cell line; experiment: Inhibition of cell proliferation, sulforhodamine B (SRB) assay; settings: read-out: IC50 inhibition of proliferation, MDA-MB-435, 48 hr treatment, mean of 3 or 4 experiments ± SD
# Experimental: as §1, §2, §3
# [7] = system: SKVLB-1 cell line (sub-line of SK-OV-3 selected for resistance to vinblastine, P-glycoprotein-overexpressing); experiment: Inhibition of cell proliferation, SRB assay, multidrug-resistant line
# Experimental: as §1, §2, §3
# [8] = system: A-10 rat aortic smooth muscle cells; experiment: Indirect immunofluorescence of microtubules, mitotic spindles and nuclei; settings: low concentration 0.5 μM; cell line not specified (A-10 or HeLa)
# Experimental: A-10 cells were grown to 70-85% confluency on glass coverslips in BME/10% FBS. Drug compounds in PBS were added to the indicated final concentrations and cells were incubated for an additional 24 hours. For the staining of microtubules and intermediate filaments, the cells were fixed with cold methanol for 5 minutes, blocked for 20 minutes with PBS containing 10% calf serum to block nonspecific binding sites, and incubated at 37° C. for 60-90 min with monoclonal anti-β-tubulin at the dilutions recommended by the manufacturer. Bound primary antibodies were subsequently visualized by a one hour incubation with fluorescein (FITC)-conjugated sheep antimouse IgG (F-3008; Sigma). The coverslips were washed, stained with 0.1 μg/mL DAPI for 10 minutes, mounted on microscope slides and the fluorescence patterns were examined and photographed using a Zeiss Axioplan microscope equipped with epifluorescence optics for fluorescein and DAPI.
compound,measurement,setting,value
CC(=O)O[C@H]1C(=O)[C@@]2(C)[C@H]([C@H](OC(=O)c3ccccc3)[C@]3(O)C[C@H](OC(=O)[C@H](O)[C@@H](NC(=O)c4ccccc4)c4ccccc4)C(C)=C1C3(C)C)[C@]1(OC(C)=O)CO[C@@H]1C[C@@H]2O [Paclitaxel],inhibition,[1],≤ 70%
same,Resistance factor (literature),[2],"greater than 58,000"
COc1ccc(C[C@H]2NC(=O)/C=C/C[C@@H]([C@H](C)[C@H]3O[C@@H]3c3ccccc3)OC(=O)[C@H](CC(C)C)OC(=O)[C@H](C)CNC2=O)cc1Cl [cryptophycin 1],Resistance factor (literature),[2],1.1
C=C1C[C@H](C)C[C@@H]2CC=C[C@@H](C/C=C\C(=O)O[C@H]([C@@H](O)/C=C/[C@@H]3CC(C)=CCO3)C[C@@H]3O[C@H]3[C@@H](O)C1)O2 [laulimalide],Resistance factor (literature),[2],105
taccalonolide A,IC50,[3],2.3 µM
same,Effect on polymerization of purified tubulin,"[4]; 2 μM and 200 μM, 35° C., 60 min",stimulated the polymerization of tubulin
same,Potency in tubulin polymerization relative to Taxol/paclitaxel,[4]; listed as Taccalonolide,much less potent than Taxol
same,Potency in tubulin polymerization relative to Taxol/paclitaxel,[4]; listed as taccalonolide,much less potent than paclitaxel
same,p17 subunit of activated caspase 3 by immunoblot,[5],detected
same,IC50,[6],2.1 µM
same,Inhibition of proliferation of SKVLB-1 (in words),[7]; P-glycoprotein overexpressing line,completely inhibit the proliferation
same,Resistance factor,[7]; SK-OV-3 (drug-sensitive) versus SKVLB-1 (drug resistant) IC50,285
same,Substrate for P-glycoprotein mediated drug transport,[7]; inferred from resistance factor SK-OV-3/SKVLB-1,poor substrate
same,IC50,"[7]; read-out: IC50 inhibition of proliferation, SKVLB-1, 48 hr treatment, SRB assay, multidrug-resistant line, mean of 3 or 4 experiments ± SD",656 ± 42 µM
same,First observable cellular change in dose-response study,[8],abnormal coordination of the DNA in the metaphase plate during mitosis
